Reference: US10093675B2, “6,8-disubstituted-9-(heterocyclyl)purines, compositions containing these derivatives and their use in cosmetic and medicinal applications” (USTAV EXPERIMENTALNI BOTANIKY AV CR, V.V.I., priority 2014, dated 2018)

Assays:
[1] = system: detached leaves of Triticum aestivum cv. Hereward; test: Membrane lipid peroxidation (MDA, TBA method) in detached wheat leaves during dark senescence; type: in vivo; settings: four days in the dark, Control 18.9 (±2.2)
Method: A typical symptom associated with senescence as a direct consequence of increased reactive oxygen species is lipid peroxidation. Therefore the levels of MDA, a decomposition product of lipid peroxidation, were measured in detached wheat leaves that were exposed to the prepared novel derivatives and kinetin for four days in the dark as described in Example 8. MDA levels were measured using a thiobarbituric acid (TBA) method. In detail, 100 mg of fresh plant material was homogenized by high speed shaking in a ball mill (MM301, Retsch, Germany) with 1 mL of 80% methanol. The crude extract was centrifuged at 10,000×g for 5 min, and 100 μL aliquot of supernatant was vortexed with 100 μL of 0.5% (w/v) TBA containing 0.1% (w/v) trichloroacetic acid, and the resulting solution was then incubated for 30 min at 95° C. The samples were quickly cooled on ice and recentrifuged for 5 min at 1000×g. The absorbance of supernatant was measured at 532 nm with background subtraction at 600 nm and the amount of MDA-TBA complex was calculated from the coefficient of absorbance 155 mM^−1cm^−1.
(§1) Seeds of winter wheat, Triticum aestivum cv. Hereward, were washed under running water for 24 hours and then sown on vermiculite soaked with Knop's solution. They were placed in the grown chamber at 25° C. with a 16/8 hours light period at […]. After 7 days, the first leaf was fully developed and the second leaf had started to grow. A tip section of the first leaf, approximately 35 mm long, was removed from 5 seedlings and trimmed slightly to a combined weight of 100 mg. The basal ends of the five leaf tips were placed in the wells of a microtiter polystyrene plate containing […] of a cytokinin solution each. The entire plate was inserted into a plastic box lined with paper tissues soaked in distilled water to prevent leaf sections from drying out. After 96 hours incubation in the dark at 25° C., the leaves were removed and chlorophyll extracted by heating at 80 C for 10 min in 5 ml of 80% ethanol (v/v). The sample volume was then restored to 5 ml by the addition of 80% ethanol (v/v). The absorbance of the extract was recorded at 665 nm. In addition, chlorophyll extracts from fresh leaves and leaf tips incubated in deionized water were measured. From the obtained data, the concentration with highest activity was selected for each compound tested. Relative activity of the compound at this concentration was calculated (see Table 6 below). The activity obtained for 10^−4 M kinetin (Kin) was set as 100%. The values shown are means of five replicates and the whole experiment was repeated twice.

[2] = system: excised wheat leaf tips (Triticum aestivum cv. Hereward); test: Senescence inhibition on winter wheat leaf segments (retention of chlorophyll); type: in vivo; settings: 10^−4 mol/L; 96 hours in the dark; activity of kinetin set at 100%
Method: as §1
The compounds to be tested were dissolved in dimethylsulfoxide (DMSO) and the solution brought up to 10^−3 M with distilled water. […] As summarized in Table 6 below, the presence of C-8 substitutent was beneficial and led to increase of antisenescent properties.

[3] = system: human diploid fibroblasts (HDF cells; HDF25, HDF45, HDF80); test: Inhibition of human cell aging: senescent cells by beta-galactosidase staining; type: cell-based; settings: for SENESCENT CELLS (%) HDF25: human diploid fibroblasts passage 25, beta-galactosidase staining; for SENESCENT CELLS (%) HDF45: human diploid fibroblasts passage 45, beta-galactosidase staining; for SENESCENT CELLS (%) HDF80: human diploid fibroblasts passage 80, beta-galactosidase staining
Method: In this example, human diploid fibroblasts (HDF cells of various passage levels: passage 25—designated HDF25; passage 45—designated HDF45; passage 80—designated HDF80) were stained for beta-galactosidase activity. The medium used for the cell cultivation was removed the cells were washed twice in […], and fixed in 2-3 ml of fixing solution comprised of a 2% formaldehyde and 0.2% glutaraldehyde in PBS. The cells were incubated at room temperature for 5 minutes, and then washed twice with PBS. The cells were subsequently incubated at 37° C. […] In this experiment, senescent cells, but no other cells were stained blue due to the action of beta-galactosidase on the substrate.

[4] = system: Salmonella typhimurium histidien auxotrophs TA98 and TA100; test: Ames test; type: cell-based; settings: 2.5 to 5000 μg/plate; presence and absence of Aroclor-induced rat liver S9
Method: A number of tests related to the safety of have been carried out using conventionally accepted protocols and procedures. The results of these studies are summarized herein. Tests were carried out using DMSO as solvent and dose levels of compound 21, 24, 26, 27, 39, 41, 45, 48, 50, 52, 53, 54, 55, 56, 63, 64, 66, 67, 68, 69, 70, 71, 72, 74, 76, 124, 125, 126, 127, 128, 129, 130, 145, 146, 147, 149, 150, 151, 208, 216, 218 a 243 at 2.5, 5.0, 15, 50, 500, 1500, and 5000 μg/plate based upon standard protocol and procedures (Ames et al., Mutation Research, 31, 347-364 (1975); Maron et al., Mutation Research, 113, 173-215 (1983)).

Row | Structure (SMILES) | MDA (nmol/g FW) [1] | other results
1 | Oc1ccc(CNc2ncnc3c2nc(O)n3C2CCCO2)cc1 (stereo not drawn) [Compound 224] | 9.3 (±0.8) nmol/g FW | 
2 | Oc1ccc(CNc2ncnc3c2nc(Cl)n3C2CCCCO2)cc1 (stereo not drawn) [Compound 13] | 11.9 (±1.3) nmol/g FW | 
3 | C/C(=C/CNc1ncnc2c1nc(Br)n2C1CCCCO1)CO (stereo not drawn) [Compound 25] | 11.7 (±1.1) nmol/g FW | 
4 | CC(C)=CCNc1ncnc2c1nc(NCCO)n2C1CCCO1 (stereo not drawn) [Compound 245] | 9.5 (±0.6) nmol/g FW | 
5 | Oc1ccc(Nc2ncnc3c2nc(Cl)n3C2CCCCO2)cc1 (stereo not drawn) [Compound 16] | 11.6 (±1.0) nmol/g FW | 
6 | NCCCOc1nc2c(NCc3ccco3)ncnc2n1C1CCCO1 (stereo not drawn) [Compound 241] | 9.6 (±0.8) nmol/g FW | 
7 | COc1cc(CNc2ncnc3c2nc(Cl)n3C2CCCCO2)cc(OC)c1O (stereo not drawn) [Compound 14] | 12.2 (±1.4) nmol/g FW | 
8 | Oc1ccc(CNc2ncnc3c2nc(Cl)n3C2CCCCO2)cc1O (stereo not drawn) [Compound 10] | 12.8 (±1.1) nmol/g FW | Activity (%) (s.d.), retention of chlorophyll [2]: 132 (±7) %
9 | Oc1nc2c(NCc3ccco3)ncnc2n1C1CCCO1 (stereo not drawn) [Compound 221] | 10.2 (±0.5) nmol/g FW | 
10 | Brc1nc2c(NCc3ccco3)ncnc2n1C1CCCCO1 (stereo not drawn) [Compound 21, 8-Bromo-6-furfurylamino-9-(tetrahydropyran-2-yl)-9H-purine] | 12.1 (±1.2) nmol/g FW | SENESCENT CELLS (%) HDF25 [3]: 3%; SENESCENT CELLS (%) HDF45 [3]: 5%; SENESCENT CELLS (%) HDF80 [3]: 20%; mutagenic response [4]: no positive mutagenic responses; Activity (%) (s.d.), retention of chlorophyll [2]: 108 (±3) %
11 | C/C(=C/CNc1ncnc2c1nc(N(C)C)n2C1CCCO1)CO (stereo not drawn) [Compound 189] | 10.8 (±0.9) nmol/g FW | 
12 | Oc1ccc(CNc2ncnc3c2nc(Br)n3C2CCCCO2)cc1O (stereo not drawn) [Compound 39] | 11.6 (±1.2) nmol/g FW | SENESCENT CELLS (%) HDF25 [3]: 3%; SENESCENT CELLS (%) HDF45 [3]: 4%; SENESCENT CELLS (%) HDF80 [3]: 20%; mutagenic response [4]: no positive mutagenic responses; Activity (%) (s.d.), retention of chlorophyll [2]: 128 (±3) %
13 | NCCCNc1nc2c(NCc3ccco3)ncnc2n1C1CCCO1 (stereo not drawn) [Compound 238] | 9.4 (±0.7) nmol/g FW | 
14 | Clc1nc2c(NCc3ccco3)ncnc2n1C1CCCCO1 (stereo not drawn) [Compound 1, 8-Chloro-6-furfurylamino-9-(tetrahydropyran-2-yl)-9H-purine] | 12.8 (±1.0) nmol/g FW | Activity (%) (s.d.), retention of chlorophyll [2]: 105 (±3) %
15 | Oc1ccc(Nc2ncnc3c2nc(Br)n3C2CCCCO2)cc1 (stereo not drawn) [Compound 44] | 10.7 (±0.8) nmol/g FW | 
16 | Nc1nc2c(NCc3ccc(O)cc3)ncnc2n1C1CCCO1 (stereo not drawn) [Compound 201] | 8.7 (±0.7) nmol/g FW | 
17 | NCCNc1nc2c(NCc3ccco3)ncnc2n1C1CCCO1 (stereo not drawn) [Compound 233] | 9.8 (±0.7) nmol/g FW | 
18 | Nc1nc2c(NCc3ccco3)ncnc2n1C1CCCO1 (stereo not drawn) [Compound 197] | 9.2 (±0.6) nmol/g FW | 
